Measured values taken from the CheMixHub ionic liquid set.

Test: xn = mol fraction of the nth substance listed
Conditions: for electrical conductivity: 298 K, 101 kPa

CC[n+]1ccn(C)c1.F[B-](F)(F)F + C1COCCO1
100 kPa
Conditions	viscosity [mPa·s]
293.15 K, x2 = 0	50.5
298.15 K, x2 = 0.2149	26.8
303.15 K, x2 = 0	34.5
303.15 K, x2 = 0.1664	25.1
303.15 K, x2 = 0.2149	22.7
303.15 K, x2 = 0.5453	9.3
313.15 K, x2 = 0.2149	16.9
323.15 K, x2 = 0	18.6
323.15 K, x2 = 0.5077	6.59
323.15 K, x2 = 0.5453	5.93
333.15 K, x2 = 0.3591	7.8
333.15 K, x2 = 0.5077	5.42
353.15 K, x2 = 0.5453	3.52

CC[n+]1ccn(C)c1.F[B-](F)(F)F + CC1COC(=O)O1
Conditions	electrical conductivity [S/m]
x2 = 0.16	1.5
x2 = 0.83	1.68
x2 = 0.89	1.46

CC[n+]1ccn(C)c1.O=S(=O)([N-]S(=O)(=O)C(F)(F)F)C(F)(F)F + CC1COC(=O)O1
101.3 kPa
Conditions	viscosity [mPa·s]
288.15 K, x1 = 0.7977	34.2
293.15 K, x1 = 0.3007	8.42
293.15 K, x1 = 1	39.06
298.15 K, x1 = 0.2127	5.58
298.15 K, x1 = 0.7004	20.1
303.15 K, x1 = 0.1	3.358
303.15 K, x1 = 0.4227	8.98
303.15 K, x1 = 0.7601	18.97
308.15 K, x1 = 0.4227	7.89
308.15 K, x1 = 0.6015	12.59
308.15 K, x1 = 0.7601	16.83
308.15 K, x1 = 1	23.19
313.15 K, x1 = 0.7601	14.7
313.15 K, x1 = 0.8098	16.11
313.15 K, x1 = 1	19.94
318.15 K, x1 = 0.3007	4.614
318.15 K, x1 = 0.6015	9.46
318.15 K, x1 = 0.7004	11.6
318.15 K, x1 = 0.9533	16.99
323.15 K, x1 = 0.6015	8.33
328.15 K, x1 = 0.2127	3.014
328.15 K, x1 = 0.4227	5.07
328.15 K, x1 = 0.5146	6.11
328.15 K, x1 = 0.7601	9.85
328.15 K, x1 = 0.7977	10.52
333.15 K, x1 = 0.1	1.979
333.15 K, x1 = 0.3007	3.477
333.15 K, x1 = 0.658	7.31
333.15 K, x1 = 0.7004	7.92
338.15 K, x1 = 0.1	1.838
343.15 K, x1 = 0.5146	4.595
343.15 K, x1 = 0.7601	6.96
343.15 K, x1 = 0.7977	7.41
343.15 K, x1 = 0.8098	7.59
348.15 K, x1 = 0.1	1.599
348.15 K, x1 = 0.2127	2.203
348.15 K, x1 = 0.658	5.39

CCCCCC[P+](CCCC)(CCCC)CCCC.F[B-](F)(F)F + CC#N
viscosity [mPa·s], 100 kPa
Conditions	x1 = 0.004011	x1 = 0.008155	x1 = 0.01203	x1 = 0.01615	x1 = 0.01996	x1 = 0.02404	x1 = 0.02792	x1 = 0.03151	x1 = 0.03559	x1 = 0.03974
293.15 K	0.374	0.398	0.419	0.446	0.47	0.499	0.526	0.554	0.585	0.621
298.15 K	0.357	0.379	0.399	0.423	0.446	0.472	0.497	0.523	0.551	0.585
303.15 K	0.341	0.361	0.38	0.403	0.423	0.448	0.47	0.495	0.521	0.552
308.15 K	0.326	0.345	0.362	0.383	0.403	0.425	0.446	0.469	0.493	0.522
313.15 K	0.313	0.331	0.347	0.366	0.384	0.406	0.425	0.446	0.468	0.495
318.15 K	0.3	0.317	0.332	0.35	0.367	0.387	0.405	0.424	0.445	0.47
